In patent US4725683A, “Fluorophenoxyphenoxypropionates and derivatives thereof” (The Dow Chemical Company, priority 1985, dated 1988):

Columns and labels:
Test in all cases: Preemergent activity
Assay type in all cases: in vivo
Barnyard Grass = conditions: Echinochloa crus-galli, pre-emergence, read-out: Preemergence Control; for pest or weed control at 70 g/ha: 0.07 kgs/hectare; for pest or weed control at 140 g/ha: 0.14 kgs/hectare; for pest or weed control at 280 g/ha: 0.28 kgs/hectare; for pest or weed control at 560 g/ha: 0.56 kgs/hectare; for pest or weed control at 1120 g/ha: 1.12 kgs/hectare
Protocol: (§1) In a representative operation, 2-[4-(2-fluoro-4-trifluoromethylphenoxy)phenoxy]propionic acid methyl ester, to be utilized in a series of tests, is dissolved in acetone to one half of the final volume (twice the final concentration) to be used and the acetone solution in each case is admixed with an equal volume of water containing 0.1 percent by weight of Tween-20 surface active material (Tween-20 is a trademark of Atlas Chemical Company). The composition, generally in the nature of an emulsion, was employed to treat separate respective seed beds of sandy loam soil of good nutrient content wherein each seed bed contained separate groups of good viable seeds, each group being of one of a known plant species. The various beds were positioned side by side and exposed to substantially identical conditions of temperature and light. Each bed was maintained so as to prevent any interaction with the test compound in different seed beds. Each seed bed was treated with the composition as a spray employing conventional spraying equipment to deposit a predetermined amount of the compound uniformly throughout the surface of the bed. Another seed bed was treated only with the acetone-Tween-20 water mixture with no chemical added to serve as a control.

Johnson Grass = conditions: Sorghum halepense, pre-emergence, read-out: Preemergence Control; for pest or weed control at 70 g/ha: 0.07 kgs/hectare; for pest or weed control at 140 g/ha: 0.14 kgs/hectare; for pest or weed control at 280 g/ha: 0.28 kgs/hectare; for pest or weed control at 560 g/ha: 0.56 kgs/hectare; for pest or weed control at 1120 g/ha: 1.12 kgs/hectare
Protocol: as §1

Wheat = conditions: Triticum aestivum, pre-emergence, read-out: Preemergence Control; for plant injury at 70 g/ha: 0.07 kgs/hectare; for plant injury at 140 g/ha: 0.14 kgs/hectare; for plant injury at 280 g/ha: 0.28 kgs/hectare; for plant injury at 560 g/ha: 0.56 kgs/hectare; for plant injury at 1120 g/ha: 1.12 kgs/hectare
Protocol: as §1

Wild Oats = conditions: Avena fatua, pre-emergence, read-out: Preemergence Control; for pest or weed control at 70 g/ha: 0.07 kgs/hectare; for pest or weed control at 140 g/ha: 0.14 kgs/hectare; for pest or weed control at 280 g/ha: 0.28 kgs/hectare; for pest or weed control at 560 g/ha: 0.56 kgs/hectare; for pest or weed control at 1120 g/ha: 1.12 kgs/hectare
Protocol: as §1

Yellow Foxtail = conditions: Setaria, pre-emergence, read-out: Preemergence Control; for pest or weed control at 70 g/ha: 0.07 kgs/hectare; for pest or weed control at 140 g/ha: 0.14 kgs/hectare; for pest or weed control at 280 g/ha: 0.28 kgs/hectare; for pest or weed control at 560 g/ha: 0.56 kgs/hectare; for pest or weed control at 1120 g/ha: 1.12 kgs/hectare
Protocol: as §1

| SMILES | pest or weed control at 140 g/ha (Barnyard Grass) [%] | pest or weed control at 280 g/ha (Barnyard Grass) [%] | pest or weed control at 560 g/ha (Barnyard Grass) [%] | pest or weed control at 1120 g/ha (Barnyard Grass) [%] | pest or weed control at 140 g/ha (Johnson Grass) [%] | pest or weed control at 280 g/ha (Johnson Grass) [%] | pest or weed control at 560 g/ha (Johnson Grass) [%] | pest or weed control at 1120 g/ha (Johnson Grass) [%] | plant injury at 70 g/ha (Wheat) [%] | plant injury at 140 g/ha (Wheat) [%] | plant injury at 280 g/ha (Wheat) [%] | plant injury at 560 g/ha (Wheat) [%] | plant injury at 1120 g/ha (Wheat) [%] | pest or weed control at 140 g/ha (Wild Oats) [%] | pest or weed control at 280 g/ha (Wild Oats) [%] | pest or weed control at 560 g/ha (Wild Oats) [%] | pest or weed control at 1120 g/ha (Wild Oats) [%] | pest or weed control at 140 g/ha (Yellow Foxtail) [%] | pest or weed control at 560 g/ha (Yellow Foxtail) [%] | pest or weed control at 1120 g/ha (Yellow Foxtail) [%] | other results |
| --- | --- | --- | --- | --- | --- | --- | --- | --- | --- | --- | --- | --- | --- | --- | --- | --- | --- | --- | --- | --- | --- |
| CC(Oc1ccc(Oc2ccc(Br)cc2F)cc1)C(=O)O (centres unmarked) [OH, 2-(4-(4-Bromo-2-fluorophenoxy)phenoxy)propionic acid] | 95 | 100 | 100 | 100 | 60 | 80 | 100 | 100 | 0 | 0 | 0 | 0 | 30 | 100 | 90 | 95 | 100 | 0 | 100 | 100 | pest or weed control at 70 g/ha (Barnyard Grass): 50%; pest or weed control at 70 g/ha (Johnson Grass): 0%; pest or weed control at 70 g/ha (Wild Oats): 0%; pest or weed control at 70 g/ha (Yellow Foxtail): 0%; pest or weed control at 280 g/ha (Yellow Foxtail): 90% |
| CCOCCOC(=O)C(C)Oc1ccc(Oc2ccc(Br)cc2F)cc1 (centres unmarked) [O(CH2)2 OC2 H5] | 90 | 95 | 100 | 100 | 0 | 0 | 60 | 60 | 0 | 0 | 0 | 0 | 20 | 30 | 30 | 100 | 100 | 0 | 100 | 100 | pest or weed control at 70 g/ha (Barnyard Grass): 0%; pest or weed control at 70 g/ha (Johnson Grass): 0%; pest or weed control at 70 g/ha (Wild Oats): 0%; pest or weed control at 70 g/ha (Yellow Foxtail): 0%; pest or weed control at 280 g/ha (Yellow Foxtail): 80% |
| C#CCOC(=O)C(C)Oc1ccc(Oc2ccc(Br)cc2F)cc1 (centres unmarked) [OCH2CCH] | 20 | 100 | 100 | 100 | 20 | 50 | 100 | 100 | 0 | 0 | 0 | 0 | 0 | – | 50 | 50 | 70 | 60 | 100 | 100 | pest or weed control at 70 g/ha (Barnyard Grass): 0%; pest or weed control at 70 g/ha (Johnson Grass): 0%; pest or weed control at 70 g/ha (Wild Oats): 0%; pest or weed control at 70 g/ha (Yellow Foxtail): 0%; pest or weed control at 280 g/ha (Yellow Foxtail): 95% |
| CC(Oc1ccc(Oc2ccc(Br)cc2F)cc1)C(=O)OC1CCCC1 (centres unmarked) | 50 | 100 | 100 | 100 | 0 | 40 | 100 | 100 | 0 | 0 | 0 | 0 | 80 | 0 | 30 | 100 | 100 | 0 | 100 | 100 | pest or weed control at 280 g/ha (Yellow Foxtail): 100% |
| CC(Oc1ccc(Oc2ccc(Br)cc2F)cc1)C(N)=O (centres unmarked) [NH2, 2-(4-(4-Bromo-2-fluorophenoxy)phenoxy)propionamide] | 100 | 100 | 100 | 100 | 0 | 30 | 90 | 100 | 0 | 0 | 30 | 90 | 40 | 0 | 50 | 50 | 95 | 90 | 100 | 100 | pest or weed control at 70 g/ha (Barnyard Grass): 20%; pest or weed control at 70 g/ha (Johnson Grass): 0%; pest or weed control at 70 g/ha (Wild Oats): 0%; pest or weed control at 70 g/ha (Yellow Foxtail): 0%; pest or weed control at 280 g/ha (Yellow Foxtail): 95% |
| CC(Oc1ccc(Oc2ccc(Br)cc2F)cc1)C(=O)N(C)c1ccccc1 (centres unmarked) | 0 | – | – | 0 | 0 | – | – | 0 | 0 | 0 | 0 | 0 | 0 | 0 | – | – | 0 | 0 | – | 0 | – |
| CC(Oc1ccc(Oc2ccc(Br)cc2F)cc1)C(=O)OCCN(C)C (centres unmarked) [O(CH2)2 N(CH3)2] | 100 | 100 | 100 | 100 | 0 | 60 | 95 | 100 | 0 | 0 | 0 | 0 | 0 | 30 | 30 | 90 | 99 | 0 | 100 | 100 | pest or weed control at 70 g/ha (Barnyard Grass): 70%; pest or weed control at 70 g/ha (Johnson Grass): 0%; pest or weed control at 70 g/ha (Wild Oats): 0%; pest or weed control at 70 g/ha (Yellow Foxtail): 0%; pest or weed control at 280 g/ha (Yellow Foxtail): 0% |
| Cc1cc(Cl)ccc1NC(=O)C(C)Oc1ccc(Oc2ccc(Br)cc2F)cc1 (centres unmarked) | 0 | – | 0 | 100 | 0 | – | 0 | 60 | 0 | 0 | 0 | 0 | 40 | 0 | – | 0 | 90 | 0 | 70 | 100 | – |
| CC(Oc1ccc(Oc2ccc(Br)cc2F)cc1)C(=O)Nc1ccc(C(F)(F)F)cc1 (centres unmarked) | 0 | – | – | 50 | 0 | – | – | 20 | 0 | 0 | 0 | 0 | 0 | 0 | – | – | 60 | 0 | – | 0 | – |
